Patent publication US20160022675A1, “PROCESSES FOR PREPARING TETRAHYDROISOQUINOLINES” (BRISTOL-MYERS SQUIBB COMPANY, priority 2013, published 2016)

Key:
adrenergic α1B receptor = molecular target: T1, adrenergic α1B receptor (Homo sapiens, UniProt P35368); assay: Off-target activity at adrenergic α1B receptor; format: binding; settings: off-target site
T1 sequence (P35368 1-520): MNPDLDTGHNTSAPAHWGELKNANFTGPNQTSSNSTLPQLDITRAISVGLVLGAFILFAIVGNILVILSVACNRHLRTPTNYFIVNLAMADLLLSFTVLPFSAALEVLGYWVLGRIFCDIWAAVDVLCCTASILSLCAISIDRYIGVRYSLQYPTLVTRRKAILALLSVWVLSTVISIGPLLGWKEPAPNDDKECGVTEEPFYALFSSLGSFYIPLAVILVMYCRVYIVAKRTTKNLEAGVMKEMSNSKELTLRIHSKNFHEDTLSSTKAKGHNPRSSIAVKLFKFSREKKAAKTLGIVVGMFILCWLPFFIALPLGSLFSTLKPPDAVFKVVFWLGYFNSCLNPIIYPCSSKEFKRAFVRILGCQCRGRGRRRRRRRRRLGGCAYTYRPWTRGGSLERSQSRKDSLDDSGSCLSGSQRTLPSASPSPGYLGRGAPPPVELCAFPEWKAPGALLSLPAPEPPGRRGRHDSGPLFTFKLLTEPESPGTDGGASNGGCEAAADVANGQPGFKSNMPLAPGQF

NET = NET (Homo sapiens, UniProt P23975); assay: Competition binding, membranes from HEK cells overexpressing NET; parameters: expressed in transfected cells; host or cells: HEK cells (membranes); settings: radioligand at Kd concentration; HEK cell membranes
Description: (§1) Competition binding experiments were performed to determine the in vitro binding potencies (IC50 values) of Compound 1-(4S) for SERT, DAT, and NET. Membranes prepared from human embryonic kidney (HEK) cells overexpressing each transporter were employed. Radioligands were used at their respective affinity constant (Kd) concentrations for each transporter to enable direct comparisons of the IC50 values between assays.

DAT = DAT (Homo sapiens, UniProt Q01959); assay: Competition binding, membranes from HEK cells overexpressing DAT; parameters: expressed in transfected cells; host or cells: HEK cells (membranes); settings: radioligand at Kd concentration; HEK cell membranes
Description: as §1

adrenergic α1D receptor = molecular target: T2, adrenergic α1D receptor (Homo sapiens, UniProt P25100); assay: Off-target activity at adrenergic α1D receptor; format: binding; settings: off-target site
T2 sequence (P25100 1-572): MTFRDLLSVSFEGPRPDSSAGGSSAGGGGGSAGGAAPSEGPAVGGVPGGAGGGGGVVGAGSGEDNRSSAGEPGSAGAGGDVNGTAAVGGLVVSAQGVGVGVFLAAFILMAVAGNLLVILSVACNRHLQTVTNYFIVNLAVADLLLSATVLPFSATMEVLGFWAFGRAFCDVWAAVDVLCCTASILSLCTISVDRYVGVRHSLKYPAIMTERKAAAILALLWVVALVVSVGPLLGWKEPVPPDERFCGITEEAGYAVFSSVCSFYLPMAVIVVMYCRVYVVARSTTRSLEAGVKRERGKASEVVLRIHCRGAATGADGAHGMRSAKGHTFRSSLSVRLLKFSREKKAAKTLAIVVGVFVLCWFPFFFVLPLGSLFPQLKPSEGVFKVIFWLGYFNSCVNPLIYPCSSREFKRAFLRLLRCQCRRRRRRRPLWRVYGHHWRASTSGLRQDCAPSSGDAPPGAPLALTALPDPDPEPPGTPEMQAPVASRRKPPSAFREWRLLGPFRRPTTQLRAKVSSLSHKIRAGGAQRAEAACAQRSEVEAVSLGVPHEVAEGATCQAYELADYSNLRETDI

5-HT1A = molecular target: T3, 5-HT1A (Homo sapiens, UniProt P08908); assay: Off-target activity at 5-HT1A; format: binding; settings: off-target site; read-out: 5-HT1A inhibition constant Ki
T3 sequence (P08908 1-422): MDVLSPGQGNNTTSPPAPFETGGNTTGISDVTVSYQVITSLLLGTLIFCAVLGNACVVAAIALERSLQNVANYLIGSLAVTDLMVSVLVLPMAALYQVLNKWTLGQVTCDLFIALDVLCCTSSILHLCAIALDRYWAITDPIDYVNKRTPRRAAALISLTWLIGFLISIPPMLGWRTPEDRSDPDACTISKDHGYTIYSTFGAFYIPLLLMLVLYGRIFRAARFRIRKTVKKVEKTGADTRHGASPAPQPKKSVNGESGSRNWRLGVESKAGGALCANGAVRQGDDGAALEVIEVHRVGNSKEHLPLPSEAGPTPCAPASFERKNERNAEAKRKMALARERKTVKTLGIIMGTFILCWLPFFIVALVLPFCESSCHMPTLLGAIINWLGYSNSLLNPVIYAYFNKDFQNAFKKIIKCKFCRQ

SERT = SERT (Homo sapiens, UniProt P31645); assay: Competition binding, membranes from HEK cells overexpressing SERT; parameters: expressed in transfected cells; host or cells: HEK cells (membranes); settings: radioligand at Kd concentration; HEK cell membranes; read-out: SERT binding IC50
Description: as §1

adrenergic α1A receptor = molecular target: T4, adrenergic α1A receptor (Homo sapiens, UniProt P35348); assay: Off-target activity at adrenergic α1A receptor; format: binding; settings: off-target site
T4 sequence (P35348 1-466): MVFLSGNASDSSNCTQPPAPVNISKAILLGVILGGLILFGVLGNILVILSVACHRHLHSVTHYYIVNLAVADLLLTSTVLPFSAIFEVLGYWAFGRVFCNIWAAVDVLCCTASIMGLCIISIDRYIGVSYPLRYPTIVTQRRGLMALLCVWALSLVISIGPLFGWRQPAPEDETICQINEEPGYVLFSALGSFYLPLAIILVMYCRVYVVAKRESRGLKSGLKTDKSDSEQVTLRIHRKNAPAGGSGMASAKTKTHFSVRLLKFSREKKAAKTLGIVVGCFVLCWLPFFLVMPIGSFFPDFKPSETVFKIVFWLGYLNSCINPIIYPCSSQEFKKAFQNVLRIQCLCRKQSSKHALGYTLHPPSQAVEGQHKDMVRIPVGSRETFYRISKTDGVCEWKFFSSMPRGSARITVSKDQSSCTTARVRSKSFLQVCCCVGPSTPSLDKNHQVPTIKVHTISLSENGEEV

Sequence of NET (P23975 whole entry): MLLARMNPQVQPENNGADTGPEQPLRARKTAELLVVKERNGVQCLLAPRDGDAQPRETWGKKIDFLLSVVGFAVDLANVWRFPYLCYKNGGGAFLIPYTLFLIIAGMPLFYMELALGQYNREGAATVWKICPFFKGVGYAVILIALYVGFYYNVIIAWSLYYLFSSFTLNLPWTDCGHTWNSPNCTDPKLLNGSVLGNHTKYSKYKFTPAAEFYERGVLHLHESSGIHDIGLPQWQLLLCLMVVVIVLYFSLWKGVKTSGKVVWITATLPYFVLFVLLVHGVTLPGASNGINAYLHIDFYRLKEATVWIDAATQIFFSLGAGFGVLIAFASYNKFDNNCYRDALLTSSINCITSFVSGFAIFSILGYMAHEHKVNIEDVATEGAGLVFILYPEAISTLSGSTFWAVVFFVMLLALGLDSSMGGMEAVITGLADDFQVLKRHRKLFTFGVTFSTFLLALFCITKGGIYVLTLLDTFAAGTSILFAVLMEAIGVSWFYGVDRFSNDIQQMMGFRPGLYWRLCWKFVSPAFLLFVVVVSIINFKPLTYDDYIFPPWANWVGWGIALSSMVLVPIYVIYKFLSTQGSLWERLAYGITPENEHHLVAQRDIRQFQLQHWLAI
Sequence of DAT (Q01959 whole entry): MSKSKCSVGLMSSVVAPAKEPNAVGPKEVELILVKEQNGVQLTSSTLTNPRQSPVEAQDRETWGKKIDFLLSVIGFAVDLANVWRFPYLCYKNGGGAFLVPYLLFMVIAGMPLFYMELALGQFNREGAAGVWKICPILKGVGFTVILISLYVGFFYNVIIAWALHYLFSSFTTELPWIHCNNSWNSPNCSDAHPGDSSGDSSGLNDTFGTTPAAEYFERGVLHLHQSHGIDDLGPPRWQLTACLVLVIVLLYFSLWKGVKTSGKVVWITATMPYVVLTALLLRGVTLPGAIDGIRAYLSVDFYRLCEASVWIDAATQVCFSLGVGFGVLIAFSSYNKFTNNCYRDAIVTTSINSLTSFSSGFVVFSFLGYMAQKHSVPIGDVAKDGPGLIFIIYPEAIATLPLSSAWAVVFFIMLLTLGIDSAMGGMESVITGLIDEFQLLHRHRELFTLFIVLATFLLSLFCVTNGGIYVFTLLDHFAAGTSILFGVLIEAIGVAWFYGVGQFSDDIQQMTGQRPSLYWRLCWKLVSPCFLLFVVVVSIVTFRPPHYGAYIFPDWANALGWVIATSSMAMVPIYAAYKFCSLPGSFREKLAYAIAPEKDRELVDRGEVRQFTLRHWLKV
Sequence of SERT (P31645 whole entry): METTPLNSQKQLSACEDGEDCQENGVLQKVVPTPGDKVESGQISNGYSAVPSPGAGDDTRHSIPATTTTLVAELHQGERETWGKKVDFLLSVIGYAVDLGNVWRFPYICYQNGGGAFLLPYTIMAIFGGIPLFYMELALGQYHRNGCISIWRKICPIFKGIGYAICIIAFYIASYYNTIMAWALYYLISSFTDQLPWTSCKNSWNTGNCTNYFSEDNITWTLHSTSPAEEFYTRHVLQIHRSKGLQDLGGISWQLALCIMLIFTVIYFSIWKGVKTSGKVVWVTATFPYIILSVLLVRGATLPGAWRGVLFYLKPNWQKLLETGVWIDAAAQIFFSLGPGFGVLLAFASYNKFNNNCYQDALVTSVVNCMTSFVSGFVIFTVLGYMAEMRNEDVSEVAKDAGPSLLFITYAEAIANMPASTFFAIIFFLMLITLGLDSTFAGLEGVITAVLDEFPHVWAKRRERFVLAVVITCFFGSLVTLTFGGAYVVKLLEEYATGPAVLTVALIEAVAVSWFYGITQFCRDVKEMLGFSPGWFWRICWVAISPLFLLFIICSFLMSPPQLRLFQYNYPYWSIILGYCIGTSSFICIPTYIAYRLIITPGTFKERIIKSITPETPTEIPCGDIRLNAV

Nc1ccc(-c2ccc3c(c2)CNC[C@H]3c2ccc3ccccc3c2)nn1 [Compound 31]
Ki (adrenergic α1B receptor): 260 nM | IC50 (NET): 26.7 ± 3 nM | IC50 (DAT): 6.19 ± 1 nM | Ki (adrenergic α1D receptor): 480 nM | Ki (5-HT1A): 99 nM | IC50 (SERT): 0.21 ± 0.04 nM | Ki (adrenergic α1A receptor): 410 nM
